How the values were obtained:
EpoR [1] = experiment: EpoR stability in UT-7 cells treated with cycloheximide ± LEN, EpoR immunoblot; format: cell-based; conditions: cycloheximide + 1 μM LEN, CHX alone 56 h
Protocol: UT-7 cells (a cell line established from the bone marrow of a patient with acute megakaryoblastic leukemia) were treated with cycloheximide (CHX)±1 μM LEN for 0, 32, 40, 48, 56, 64, and 72 hours. The samples were then separated by SDS-PAGE, and immunoblotted with EpoR antibodies.

IL3-R = IL3-R (Type 1 receptor) expression in UT-7 cells, immunoblot; format: cell-based; conditions: LEN 0.1, 1, 10 μM, 1 hour
Protocol: (§1) To examine if the effects of LEN on receptor turnover are restricted to Type 1 cytokine receptors, the effects of LEN on cellular expression of IL3-R (Type 1) and c-Kit (Type 2) were examined. UT-7 cells were treated with increasing concentrations of LEN (0 μM (control), 0.1 μM, 1 μM, and 10 μM) for 1 hour. Samples were separated by SDS-PAGE and immunoblotted with IL3-R (Type 1) and c-Kit (Type 2) antibodies.

c-Kit = c-Kit (Type 2 receptor) expression in UT-7 cells, immunoblot; format: cell-based; conditions: LEN 0.1, 1, 10 μM, 1 hour
Protocol: as §1

EpoR/RNF41 = target: T1, EpoR/RNF41 (Homo sapiens, UniProt Q9H4P4); experiment: EpoR/RNF41 association in UT-7 cells, EpoR immunoprecipitation and RNF41 immunoblot; format: cell-based; conditions: LEN 0.1, 1, 10 μM, 1 hour
T1 construct: endogenous in cells; host or cells: UT-7
T1 sequence (Q9H4P4 1-317): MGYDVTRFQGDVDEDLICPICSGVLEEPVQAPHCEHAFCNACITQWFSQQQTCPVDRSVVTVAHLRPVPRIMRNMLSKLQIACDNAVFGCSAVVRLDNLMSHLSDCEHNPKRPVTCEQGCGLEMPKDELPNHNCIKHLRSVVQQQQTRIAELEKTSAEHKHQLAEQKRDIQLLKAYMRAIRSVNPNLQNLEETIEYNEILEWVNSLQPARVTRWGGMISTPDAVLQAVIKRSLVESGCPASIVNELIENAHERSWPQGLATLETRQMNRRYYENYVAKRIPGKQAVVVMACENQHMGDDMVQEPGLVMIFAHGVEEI
T1 sequence (P19235 25-508 partner): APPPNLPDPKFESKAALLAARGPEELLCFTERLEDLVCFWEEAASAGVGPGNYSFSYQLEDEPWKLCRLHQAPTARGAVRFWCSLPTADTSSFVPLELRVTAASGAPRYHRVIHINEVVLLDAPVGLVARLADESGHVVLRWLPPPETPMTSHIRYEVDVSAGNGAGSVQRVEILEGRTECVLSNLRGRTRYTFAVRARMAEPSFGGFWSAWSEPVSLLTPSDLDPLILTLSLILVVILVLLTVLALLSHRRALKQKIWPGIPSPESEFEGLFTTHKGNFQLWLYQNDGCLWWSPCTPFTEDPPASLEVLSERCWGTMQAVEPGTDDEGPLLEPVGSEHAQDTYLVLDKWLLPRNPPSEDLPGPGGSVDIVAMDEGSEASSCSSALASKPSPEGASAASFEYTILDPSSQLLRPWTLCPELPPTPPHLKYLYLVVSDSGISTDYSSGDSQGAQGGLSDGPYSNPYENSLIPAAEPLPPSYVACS
Protocol: To determine if LEN alters EpoR/RNF41 interaction, protein association after LEN treatment was examined. UT-7 cells were treated with increasing concentrations of LEN (0 μM (control), 0.1 μM, 1 μM, and 10 μM) for 1 hour. The cells were then lysed, and the cell lysates were immunoprecipitated for EpoR, and immunoblotted for EpoR and RNF41.

RNF41 = target: T2, RNF41 (Homo sapiens, UniProt Q9H4P4); experiment: RNF41 auto-ubiquitination in bortezomib pre-treated UT-7 cells, RNF41 immunoprecipitation and ubiquitin immunoblot; format: cell-based; conditions: bortezomib 20 nM 24 hours, then LEN 0.1, 1, 10 μM, 1 hour
T2 construct: assessed through immunoprecipitation of RNF41 and immunoblotting for ubiquitin; endogenous in cells; host or cells: UT-7
T2 sequence (Q9H4P4 1-317): T1 sequence (Q9H4P4 1-317)
Protocol: (§2) To investigate the effects of LEN on RNF41 function, protein specific ubiquitination after proteasomal inhibition with bortezomib followed by LEN treatment was investigated. UT-7 cells were pre-treated with bortezomib (20 nM), a proteasome inhibitor, for 24 hours. The cells were subsequently treated with increasing concentrations of LEN (0 μM (control), 0.1 μM, 1 μM, and 10 μM) for 1 hour. The effect of LEN treatment on RNF41 was assessed through immunoprecipitation of RNF41 and immunoblotting for ubiquitin. To verify the observed effects, total protein levels in whole cell lysates were also assessed for RNF41 expression. In order to determine EpoR ubiquitination changes upon LEN treatment, immunoprecipitation of EpoR was carried out followed by immunoblotting for ubiquitin.

EpoR [2] = experiment: EpoR ubiquitination in bortezomib pre-treated UT-7 cells, EpoR immunoprecipitation and ubiquitin immunoblot; format: cell-based; conditions: bortezomib 20 nM 24 hours, then LEN 0.1, 1, 10 μM, 1 hour
Protocol: as §2

EpoR [3] = experiment: LEN-induced EpoR expression in HEK293T cells transfected with EpoR and/or RNF41, immunoblot densitometry; format: cell-based; conditions: EpoR+pMet7-RNF41 vs EpoR HEK293T cells, LEN 0.1, 1, 10 μM, 1 hour
Protocol: FIG. 1 is a bar graph plotting the ratio of EpoR/Actin in EpoR and EpoR+pMet7-RNF41 HEK293T cells treated with increasing concentrations of LEN (0 μM (control), 0.1 μM, 1 μM, and 10 μM).
To confirm that RNF41 is the principal target of LEN responsible for EpoR stabilization, HEK293T cells were transfected with EpoR and/or RNF41 expression vectors using the calcium phosphate method. Transfected cells were treated with increasing concentrations of LEN (0 μM (control), 0.1 μM, 1 μM, and 10 μM) for 1 hour, separated by SDS-PAGE, and immunoblotted with EpoR antibodies. Steady state EpoR expression was lower in EpoR/RNF41 cells compared with cells transfected with EpoR alone.

non-del(5q) MDS = conditions: MDS patients with non-del(5q); cited from earlier work
JAK2-associated EpoR = conditions: Basiorka, et al. Blood 2011; cited from earlier work

In the case of `Nc1cccc2c1CN(C1CCC(=O)NC1=O)C2=O` (stereo not drawn) [LEN, Lenalidomide], the “cellular EpoR T1/2” value (EpoR [1]) is reported as > 72 h, the “cellular expression of IL3-R” value (IL3-R) is reported as “Upregulation of IL3-R occurred in a concentration-dependent manner” and the “cellular expression of c-Kit” value (c-Kit) is reported as “remained unchanged”. For the same compound, the “binding of RNF41 to EpoR” value (EpoR/RNF41) was “Increased binding of RNF41 to EpoR occurs in a concentration-dependent manner”, the RNF41 auto-ubiquitination (RNF41) was “inhibited RNF41 auto-ubiquitination in a concentration-dependent fashion” and the EpoR ubiquitination (EpoR [2]) was “corresponding decrease in EpoR ubiquitination”. For the same compound, the “LEN induced EpoR expression (EpoR/Actin) with RNF41 overexpression” value (EpoR [3]) was “blocked LEN induced EpoR expression by approximately two-fold”, the “patients likely to be responsive to treatment” value (non-del(5q) MDS) was “approximately 26%” and the “cellular expression of JAK2-associated EpoR” value (JAK2-associated EpoR) was “induces cellular expression of JAK2-associated EpoR in a concentration-dependent manner”.

Source: US9738933B2, “RNF41 as a biomarker predicting response to lenalidomide in non-del(5q) MDS” (H. LEE MOFFITT CANCER CENTER AND RESEARCH INSTITUTE, INC., priority 2012, dated 2017)
